Results from PMC3380724 (BMC Neuroscience, 2012).

Experiments:
[1] = target: T1, unedited h5-HT2CR (Homo sapiens, UniProt P28335); test: Intracellular calcium (Cai++) release assay, Calcium 4 dye, 5-HT2CR-CHO cells
T1 sequence (P28335 33-458): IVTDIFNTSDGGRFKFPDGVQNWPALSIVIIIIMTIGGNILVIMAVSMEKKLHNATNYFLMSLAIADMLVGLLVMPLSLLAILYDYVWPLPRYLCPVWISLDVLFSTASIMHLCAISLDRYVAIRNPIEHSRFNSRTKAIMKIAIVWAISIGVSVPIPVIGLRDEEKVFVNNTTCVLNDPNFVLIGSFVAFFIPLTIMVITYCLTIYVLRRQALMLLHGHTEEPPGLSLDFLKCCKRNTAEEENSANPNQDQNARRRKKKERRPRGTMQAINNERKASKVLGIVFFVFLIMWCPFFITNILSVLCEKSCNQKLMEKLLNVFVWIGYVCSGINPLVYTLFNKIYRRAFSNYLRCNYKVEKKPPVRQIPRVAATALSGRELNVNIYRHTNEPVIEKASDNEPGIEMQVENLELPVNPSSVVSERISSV

[2] = target: T2, h5-HT2AR (Homo sapiens, UniProt P28223); test: Intracellular calcium (Cai++) release assay, Calcium 4 dye, 5-HT2AR-CHO cells; conditions: for Cai++ response when dye added into existing growth medium: "Serum Replete" protocol, 1 μM agonist (Figure 2)
T2 sequence (P28223 whole entry): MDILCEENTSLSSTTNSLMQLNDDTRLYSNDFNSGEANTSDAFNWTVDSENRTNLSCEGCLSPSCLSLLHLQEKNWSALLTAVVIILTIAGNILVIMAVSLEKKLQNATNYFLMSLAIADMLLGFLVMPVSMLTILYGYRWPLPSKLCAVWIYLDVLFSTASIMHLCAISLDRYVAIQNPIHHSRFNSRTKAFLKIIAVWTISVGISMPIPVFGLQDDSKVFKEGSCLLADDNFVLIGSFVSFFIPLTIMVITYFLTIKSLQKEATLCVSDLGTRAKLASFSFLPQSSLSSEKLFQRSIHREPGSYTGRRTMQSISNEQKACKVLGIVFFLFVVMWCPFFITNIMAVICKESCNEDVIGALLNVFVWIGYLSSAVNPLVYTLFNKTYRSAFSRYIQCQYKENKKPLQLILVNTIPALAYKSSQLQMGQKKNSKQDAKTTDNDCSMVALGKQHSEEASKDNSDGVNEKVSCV

[3] = system: parental CHO-K1 cells; test: Plate immunoassay for pERK, parental CHO-K1 cells; format: cell-based, Chinese hamster
[4] = target: T2, h5-HT2AR; test: Plate immunoassay for pERK, 5-HT2AR-CHO cells; format: cell-based; conditions: for pERK response after serum-replete preincubation: overnight serum-replete preincubation (Figure 7)
[5] = system: parental CHO-K1 cells; test: Intracellular calcium (Cai++) release assay, parental CHO-K1 cells; format: cell-based, Chinese hamster
Procedure: Changes in Cai^++ levels were determined using the calcium-sensitive dye Calcium 4 (FLIPR No-wash kit, Molecular Devices, Sunnyvale CA, part #R8142). In our hands, the Molecular Devices kit produced results with reasonable signal intensity and reproducibility compared to other commercially available reagents (e.g., Fluo-3 and Fluo-4) without the necessity of dye removal or washing prior to measurements (data not shown). In addition to convenience, the lower number of manipulations required by this kit allowed for more rapid collection of data and decreased the likelihood of cell disturbance or loss.
Cells were plated in serum-replete medium at indicated densities in black-sided, clear bottom 96-well tissue culture plates. […] When plating volume was less than 150 μl, cells were less evenly distributed (visual observation; data not quantified), so we used 150 to 200 μl. […]
Fluorescence (λex = 485 nm, λem = 525 nm) was measured with a FlexStation3 (Molecular Devices). […] The CHO cells remained attached under these conditions; if using other cells lines, attachment should be monitored and reagent addition conditions modified as necessary.
Following addition of test reagent, fluorescence was recorded every 1.7 sec for 90-120 sec. […] Maximum peak height was determined by the FlexStation software (SoftMax Pro 5.2) for each well. […]

[6] = target: T1, unedited h5-HT2CR; conditions: 5-HT2CR-CHO cells
[7] = target: T1, unedited h5-HT2CR; test: cell-based
[8] = EC50 values for agonist-stimulated Cai++ release, 5-HT2CR-CHO cells, Serum-replete overnight preincubation

COc1ccc(NC(=O)c2ccc(-c3ccc(-c4noc(C)n4)cc3C)cc2)cc1OCCN(C)C [SB216641]
Effect of 5-HT1BR antagonist on Cai++ concentration response to 5-HT ([1]; 5-HT2CR-CHO cells, 10^-6 M SB216641, any concentration of 5-HT): no significant difference

Cc1cc2c(cc1Cl)N(C(=O)Nc1ccc(Oc3cccnc3C)nc1)CC2 [SB242084]
EC50 [1]: 2.3 nM
Inhibition of 5-HT-stimulated Cai++ response by antagonist ([1]; 5-HT2CR-CHO cells, 15 min pretreatment, 1 μM 5-HT): completely inhibited

NCCc1c[nH]c2ccc(O)cc12 [5-HT, serotonin]
Cai++ response when dye added into existing growth medium [2]: dramatically reduced
pERK response [3]: no detectable response
pERK response after serum-replete preincubation [4]: suppressed
Time of peak ERK activation ([4]; serum-starved overnight, 1 μM 5-HT): 5 min
Cai++ release above baseline ([5]; above 10^-6 M 5-HT, in a few experiments, not consistent): < 5%
Cai++ release ([5]; any concentration of 5-HT (Figure 4B inset)): no Cai^++ release

Clc1cncc(N2CCNCC2)n1 [MK212]
EC50 values for agonist-stimulated Cai++ release ([2]; Serum-replete overnight preincubation): No response
EC50 values for agonist-stimulated Cai++ release ([2]; Serum-starved overnight preincubation): No response
Cai++ release ([2]; any tested concentration up to 10^-4 M): no detectable Cai^++ release
Cai++ response after serum-replete preincubation ([1]; 5-HT2CR-CHO cells preincubated in serum-replete medium): greatly decreased
EC50 [1, 8]: > 11000 nM
Cai++ response magnitude ([1]; serum-starved 5-HT2CR-CHO cells): low magnitude

COc1cc(CC(C)N)c(OC)cc1I (stereo not shown) [DOI, 1-[2,5-dimethoxy-4-iodophenyl]-2 aminopropane]
Concentration giving maximal pERK response ([6]; 5 min stimulation): ~1 μM
pERK response after serum-replete preincubation ([6]; overnight serum-replete preincubation (Figure 7)): suppressed
Cai++ response when dye added into existing growth medium [2]: completely eliminated
Cai++ response after serum preincubation ([2]; overnight serum-replete preincubation (Figure 3B)): virtually eliminated
EC50 [7]: 19 nM
Cai++ response after serum preincubation ([1]; 5-HT2CR-CHO cells, overnight serum-replete preincubation (Figure 3D)): virtually eliminated
EC50 [1, 8]: > 100000 nM
EC50 ([1]; EC50 values for agonist-stimulated Cai++ release, 5-HT2CR-CHO cells, Serum-starved overnight preincubation): 5.4 nM
Concentration giving maximal pERK response ([4]; 5 min stimulation): ~1 μM
pERK response after serum-replete preincubation [4]: suppressed
